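How tested: cells in 96-well plates exposed to compound for 48 hours at five concentrations. GI50: concentration for 50% inhibition of growth. TGI marks complete inhibition of growth.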
Legend:
Test in all cases: growth of human tumour cells (NCI), 48 h
CAKI-1 renal = test system: CAKI-1 renal
KM12 colon = test system: KM12 colon
MCF7 breast = test system: MCF7 breast
MDA-N = test system: MDA-N
MOLT-4 leukemia = test system: MOLT-4 leukemia
NCI-H226 lung = test system: NCI-H226 lung
OVCAR-4 ovarian = test system: OVCAR-4 ovarian
OVCAR-8 ovarian = test system: OVCAR-8 ovarian
SW-620 colon = test system: SW-620 colon
SN12C renal = test system: SN12C renal

Row | SMILES | TGI (CAKI-1 renal) | TGI (KM12 colon) | TGI (MCF7 breast) | TGI (MDA-N) | TGI (MOLT-4 leukemia) | TGI (NCI-H226 lung) | TGI (OVCAR-4 ovarian) | TGI (OVCAR-8 ovarian) | TGI (SW-620 colon) | GI50 (KM12 colon) | TGI (SN12C renal) | GI50 (MCF7 breast) | GI50 (MOLT-4 leukemia) | GI50 (NCI-H226 lung) | GI50 (OVCAR-4 ovarian) | GI50 (OVCAR-8 ovarian) | GI50 (SN12C renal) | GI50 (SW-620 colon) | GI50 (CAKI-1 renal)
1 | COc1ccc(-c2c(N)n(-c3cccc(C(=O)O)c3)c(=O)c3cc([N+](=O)[O-])ccc23)cc1 | > 100 µM | > 100 µM | > 100 µM | > 100 µM | > 100 µM | > 100 µM | > 100 µM | > 100 µM | > 100 µM | – | – | – | – | – | – | – | – | – | –
2 | O=C(N/N=C/c1cc(Cl)cc(Cl)c1[O-])c1ccccc1O.O=C(N/N=C/c1cc(Cl)cc(Cl)c1[O-])c1ccccc1O.[Ni+2] | 1.41 µM | 5.66 µM | – | – | 29.7 µM | 0.923 µM | 1.21 µM | 1.41 µM | 1.97 µM | 0.494 µM | – | – | – | – | – | – | – | – | –
3 | Cc1cc(S(=O)(=O)O)c(NC(=O)C(=O)C2C=CCS2(=O)=O)cc1Cl (stereo not given) | > 100 µM | > 100 µM | – | – | > 100 µM | > 100 µM | > 100 µM | > 100 µM | > 100 µM | – | > 100 µM | – | – | – | – | – | – | – | –
4 | C=CCNC(=O)NC1=CSC2=NC(=O)C3(NN12)c1ccccc1-c1ccccc13 | > 10 µM | > 10 µM | > 10 µM | – | > 10 µM | > 10 µM | > 10 µM | > 10 µM | > 10 µM | – | > 10 µM | – | – | – | – | – | – | – | –
5 | C/C(=N\NC(N)=S)C(CN(CC(C)C)CC(C)C)C(=O)Nc1ccc(C)cc1C (stereo not given) | > 100 µM | > 100 µM | – | – | > 100 µM | > 100 µM | > 100 µM | > 100 µM | > 100 µM | – | > 100 µM | – | – | – | – | – | – | – | –
6 | COc1cccc(/C=N/[N-]C(N)=O)c1[O-].[Ni+2].[OH3+].c1cnc2c(c1)ccc1cccnc12 | > 100 µM | > 100 µM | – | – | > 100 µM | > 100 µM | > 100 µM | > 100 µM | > 100 µM | – | > 100 µM | – | – | – | – | – | – | – | –
7 | CN(C)CCSC(=Nc1ccccc1)N1CCCCC1 | > 100 µM | 31 µM | – | – | 58.7 µM | 24.5 µM | 40.2 µM | 39.7 µM | 31.6 µM | – | 32.6 µM | – | – | – | – | – | – | – | –
8 | Cc1ccc(N2CCc3c(C)c(C#N)c4nc5ccccc5n4c32)cc1 | > 100 µM | – | > 100 µM | – | – | > 100 µM | > 100 µM | > 100 µM | > 100 µM | – | > 100 µM | – | – | – | – | – | – | – | –
9 | Cc1ccc(C(C2C(=O)N(C)C(=O)N(C)C2=O)C(F)(F)C(=O)N(C)C)cc1 (stereo not given) | > 100 µM | > 100 µM | > 100 µM | – | – | > 100 µM | > 100 µM | > 100 µM | > 100 µM | – | – | – | – | – | – | – | – | – | –
10 | CN(NC(=O)CCCl)C1=NCCCCN1 | – | > 100 µM | > 100 µM | > 100 µM | > 100 µM | > 100 µM | > 100 µM | > 100 µM | > 100 µM | – | > 100 µM | – | – | – | – | – | – | – | –
11 | [N-]=[N+]=CC(=O)OCC1SCCCS1 | > 100 µM | > 100 µM | > 100 µM | > 100 µM | > 100 µM | > 100 µM | > 100 µM | – | > 100 µM | – | > 100 µM | – | – | – | – | – | – | – | –
12 | C(=C\c1ccccc1)/C=N/c1nc2cc3sc(/N=C/C=C/c4ccccc4)nc3cc2s1 | > 100 µM | > 100 µM | > 100 µM | > 100 µM | > 76.1 µM | – | > 100 µM | > 100 µM | > 100 µM | – | > 100 µM | – | – | – | – | – | – | – | –
13 | COc1ccc(N=N/C(=N/NC(=O)c2ccccc2)c2ccc(N(CCC#N)CCC#N)cc2C)cc1 | > 100 µM | > 100 µM | > 100 µM | 44.4 µM | > 100 µM | > 100 µM | > 100 µM | > 100 µM | – | – | > 100 µM | – | – | – | – | – | – | – | –
14 | COc1ccc2c(c1)n([O-])c(C#N)c(N1CCN(c3ccc([N+](=O)[O-])cc3)CC1)[n+]2=O | > 100 µM | > 79.1 µM | – | > 100 µM | – | > 100 µM | > 100 µM | > 100 µM | > 100 µM | – | > 100 µM | – | – | – | – | – | – | – | –
15 | N#Cc1c(N2CCCC2)ncn(Cc2ccccc2)c1=O | – | > 100 µM | – | > 100 µM | > 100 µM | > 100 µM | > 100 µM | > 100 µM | > 100 µM | – | > 100 µM | – | – | – | – | – | – | – | –
16 | C=C1C(=O)OCC2C(C(=O)O)=CC3C(C)C(C)=CC123 (stereo not given) | 62.6 µM | 31.2 µM | 23.9 µM | – | 29.6 µM | 52.1 µM | 20.6 µM | 73.5 µM | 40.9 µM | – | 23.6 µM | – | – | – | – | – | – | – | –
17 | C#CC(F)(F)[C@]1(O)CC[C@H]2[C@@H]3CCC4=CC(=O)CCC4=C3[C@@H](c3ccc(C(C)=O)cc3)C[C@@]21C | – | 52.9 µM | 63 µM | – | 63.4 µM | 71.3 µM | 97.1 µM | > 90.6 µM | > 100 µM | 0.123 µM | > 95.3 µM | 2.64 µM | 3.9 µM | 21.7 µM | 18.9 µM | 21.1 µM | 25.1 µM | 24.2 µM | –
18 | COc1cc(/C=C2\N=C(c3ccccc3)N(c3nc4c(OC)ccc(OC)c4s3)C2=O)cc(OC)c1OC | > 100 µM | > 100 µM | > 100 µM | > 100 µM | > 100 µM | – | > 100 µM | > 100 µM | > 100 µM | – | > 100 µM | – | – | – | – | – | – | – | –
19 | COc1cccc(Cc2c3cc(OC)ccc3cc[n+]2C)c1 | > 100 µM | > 100 µM | – | – | > 100 µM | – | > 100 µM | > 100 µM | > 100 µM | – | > 100 µM | – | – | – | – | – | – | – | –
20 | O=C(NC1CCN(Cc2ccccc2)CC1)c1cc2nc(-c3ccc(Cl)s3)cc(C(F)(F)F)n2n1 | > 100 µM | – | > 100 µM | – | > 100 µM | > 100 µM | 49.3 µM | – | – | – | > 100 µM | 8.98 µM | > 100 µM | > 100 µM | 12.7 µM | – | > 100 µM | – | > 100 µM
21 | O=C1/C(=C/c2ccccc2[N+](=O)[O-])N=C(c2ccccc2)N1C1Nc2cc3c(cc2S1)NC(N1C(=O)/C(=C/c2ccccc2[N+](=O)[O-])N=C1c1ccccc1)S3 (stereo not given) | > 100 µM | > 100 µM | > 100 µM | > 100 µM | > 100 µM | > 100 µM | > 100 µM | > 100 µM | > 100 µM | – | – | – | – | – | – | – | – | – | –
22 | O=c1[nH]c(=O)n(Cc2ccccc2CO)cc1Sc1ccccc1 | 27.2 µM | > 100 µM | > 100 µM | – | > 100 µM | 43.8 µM | > 100 µM | 48.2 µM | > 100 µM | – | > 100 µM | – | – | – | – | – | – | – | –

— PubChem BioAssay (NCI)
